From patent publication US9169254B2, “Spiroimidazolone derivative” (Chugai Seiyaku Kabushiki Kaisha, priority 2009, dated 2015)

target: T1, human PTH1 receptor (Homo sapiens, UniProt Q03431); test: In vitro cAMP signal activity in HKRK-B7 cells (LLC-PK1 cells overexpressing the human PTH1 receptor); format: cell-based; settings: HKRK-B7 cells; compound at 1×10^−3 M; cAMP produced as percentage of that produced by hPTH(1-34) at 100 nM
T1 sequence (Q03431 27-593): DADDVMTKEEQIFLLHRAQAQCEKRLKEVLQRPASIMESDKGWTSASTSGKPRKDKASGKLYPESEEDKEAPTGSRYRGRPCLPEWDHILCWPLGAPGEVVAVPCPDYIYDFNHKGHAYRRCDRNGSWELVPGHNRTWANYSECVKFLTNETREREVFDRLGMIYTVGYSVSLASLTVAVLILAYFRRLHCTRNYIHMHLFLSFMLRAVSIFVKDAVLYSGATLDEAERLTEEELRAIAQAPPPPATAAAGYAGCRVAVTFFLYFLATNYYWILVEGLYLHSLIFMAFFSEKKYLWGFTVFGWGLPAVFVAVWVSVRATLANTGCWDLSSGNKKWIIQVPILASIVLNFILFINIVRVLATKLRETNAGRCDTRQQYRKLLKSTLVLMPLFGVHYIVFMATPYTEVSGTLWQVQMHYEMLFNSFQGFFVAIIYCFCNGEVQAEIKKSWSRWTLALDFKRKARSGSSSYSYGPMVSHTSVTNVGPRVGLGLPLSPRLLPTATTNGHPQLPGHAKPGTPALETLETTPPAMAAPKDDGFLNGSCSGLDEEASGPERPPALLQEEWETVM

Point of comparison: Cc1cc(C(=O)N2CC(O)C2)cc(C)c1/C=C/S(=O)(=O)N1CCC2(CC1)N=C(c1cccc(OC(F)(F)F)c1)NC2=O [Compound 408, 8-{(E)-2-[4-(3-hydroxy-azetidine-1-carbonyl)-2,6-dimethyl-phenyl]-ethenesulfonyl}-2-(3-trifluoromethoxy-phenyl)-1,3,8-triaza-spiro[4.5]dec-1-en-4-one], “cAMP production activity (%)” value 117%. Against it:
- Cc1cc(C(=O)N(C)CCN(C)C)cc(C)c1/C=C/S(=O)(=O)N1CCC2(CC1)N=C(c1cccc(C(F)(F)F)c1)NC2=O [Compound 390, N-(2-dimethylamino-ethyl)-3,5,N-trimethyl-4-{(E)-2-[4-oxo-2-(3-trifluoromethyl-phenyl)-1,3,8-triaza-spiro[4.5]dec-1-ene-8-sulfonyl]-vinyl}-benzamide] — lower, 22%
- Cc1cc(C(=O)N(C)CCCN(C)C)cc(C)c1/C=C/S(=O)(=O)N1CCC2(CC1)N=C(c1cccc(C(F)(F)F)c1)NC2=O [Compound 391, N-(3-dimethylamino-propyl)-3,5,N-trimethyl-4-{(E)-2-[4-oxo-2-(3-trifluoromethyl-phenyl)-1,3,8-triaza-spiro[4.5]dec-1-ene-8-sulfonyl]-vinyl}-benzamide] — lower, 26%
- Cc1cc(C(=O)N(C)CC(N)=O)cc(C)c1/C=C/S(=O)(=O)N1CCC2(CC1)N=C(c1cccc(C(F)(F)F)c1)NC2=O [Compound 392, N-carbamoylmethyl-3,5,N-trimethyl-4-{(E)-2-[4-oxo-2-(3-trifluoromethyl-phenyl)-1,3,8-triaza-spiro[4.5]dec-1-ene-8-sulfonyl]-vinyl}-benzamide] — lower, 83%
- Cc1cc(C(=O)N(C)C2CCN(C)CC2)cc(C)c1/C=C/S(=O)(=O)N1CCC2(CC1)N=C(c1cccc(C(F)(F)F)c1)NC2=O [Compound 393, 3,5,N-trimethyl-N-(1-methyl-piperidin-4-yl)-4-{(E)-2-[4-oxo-2-(3-trifluoromethyl-phenyl)-1,3,8-triaza-spiro[4.5]dec-1-ene-8-sulfonyl]-vinyl}-benzamide] — lower, 44%
- CC(=O)N1CCN(C(=O)c2cc(C)c(/C=C/S(=O)(=O)N3CCC4(CC3)N=C(c3cccc(OC(F)(F)F)c3)NC4=O)c(C)c2)CC1 [Compound 394, 8-{(E)-2-[4-(4-Acetyl-piperazine-1-carbonyl)-2,6-dimethyl-phenyl]-ethenesulfonyl}-2-(3-trifluoromethoxy-phenyl)-1,3,8-triaza-spiro[4.5]dec-1-en-4-one] — lower, 59%
- Cc1cc(C(=O)N2CCN(C(=O)N(C)C)CC2)cc(C)c1/C=C/S(=O)(=O)N1CCC2(CC1)N=C(c1cccc(OC(F)(F)F)c1)NC2=O [Compound 395, 4-(3,5-dimethyl-4-{(E)-2-[4-oxo-2-(3-trifluoromethoxy-phenyl)-1,3,8-triaza-spiro[4.5]dec-1-ene-8-sulfonyl]-vinyl}-benzoyl)-piperazine-1-carboxylic acid dimethylamide] — lower, 88%
- Cc1cc(C(=O)N2CCN(C(N)=O)CC2)cc(C)c1/C=C/S(=O)(=O)N1CCC2(CC1)N=C(c1cccc(OC(F)(F)F)c1)NC2=O [Compound 396, 4-(3,5-dimethyl-4-{(E)-2-[4-oxo-2-(3-trifluoromethoxy-phenyl)-1,3,8-triaza-spiro[4.5]dec-1-ene-8-sulfonyl]-vinyl}-benzoyl)-piperazine-1-carboxylic acid amide] — lower, 85%
- Cc1cc(C(=O)N2CCN(CCCN(C)C)CC2)cc(C)c1/C=C/S(=O)(=O)N1CCC2(CC1)N=C(c1cccc(OC(F)(F)F)c1)NC2=O [Compound 397, 8-((E)-2-{4-[4-(3-dimethylamino-propyl)-piperazine-1-carbonyl]-2,6-dimethyl-phenyl}-ethenesulfonyl)-2-(3-trifluoromethoxy-phenyl)-1,3,8-triaza-spiro[4.5]dec-1-en-4-one] — higher, 126%
- CN[C@@H]1CCN(C(=O)c2cc(C)c(/C=C/S(=O)(=O)N3CCC4(CC3)N=C(c3cccc(OC(F)(F)F)c3)NC4=O)c(C)c2)C1 [Compound 398, 8-{(E)-2-[2,6-dimethyl-4-((R)-3-methylamino-pyrrolidine-1-carbonyl)-phenyl]-ethenesulfonyl}-2-(3-trifluoromethoxy-phenyl)-1,3,8-triaza-spiro[4.5]dec-1-en-4-one] — lower, 52%
- Cc1cc(C(=O)N2CC[C@@H](N(C)C)C2)cc(C)c1/C=C/S(=O)(=O)N1CCC2(CC1)N=C(c1cccc(OC(F)(F)F)c1)NC2=O [Compound 399, 8-{(E)-2-[4-((R)-3-dimethylamino-pyrrolidine-1-carbonyl)-2,6-dimethyl-phenyl]-ethenesulfonyl}-2-(3-trifluoromethoxy-phenyl)-1,3,8-triaza-spiro[4.5]dec-1-en-4-one] — lower, 64%
- Cc1cc(C(=O)N2CCC(O)CC2)cc(C)c1/C=C/S(=O)(=O)N1CCC2(CC1)N=C(c1cccc(OC(F)(F)F)c1)NC2=O [Compound 400, 8-{(E)-2-[4-(4-hydroxy-piperidine-1-carbonyl)-2,6-dimethyl-phenyl]-ethenesulfonyl}-2-(3-trifluoromethoxy-phenyl)-1,3,8-triaza-spiro[4.5]dec-1-en-4-one] — lower, 76%
- Cc1cc(C(=O)N2CC[C@@H](O)C2)cc(C)c1/C=C/S(=O)(=O)N1CCC2(CC1)N=C(c1cccc(OC(F)(F)F)c1)NC2=O [Compound 401, 8-{(E)-2-[4-((R)-3-hydroxy-pyrrolidine-1-carbonyl)-2,6-dimethyl-phenyl]-ethenesulfonyl}-2-(3-trifluoromethoxy-phenyl)-1,3,8-triaza-spiro[4.5]dec-1-en-4-one] — lower, 83%
- Cc1cc(C(=O)N2CC[C@H](O)C2)cc(C)c1/C=C/S(=O)(=O)N1CCC2(CC1)N=C(c1cccc(OC(F)(F)F)c1)NC2=O [Compound 402, 8-{(E)-2-[4-((S)-3-hydroxy-pyrrolidine-1-carbonyl)-2,6-dimethyl-phenyl]-ethenesulfonyl}-2-(3-trifluoromethoxy-phenyl)-1,3,8-triaza-spiro[4.5]dec-1-en-4-one] — lower, 85%
- Cc1cc(C(=O)N2CCC(O)(CO)CC2)cc(C)c1/C=C/S(=O)(=O)N1CCC2(CC1)N=C(c1cccc(OC(F)(F)F)c1)NC2=O [Compound 403, 8-{(E)-2-[4-(4-hydroxy-4-hydroxymethyl-piperidine-1-carbonyl)-2,6-dimethyl-phenyl]-ethenesulfonyl}-2-(3-trifluoromethoxy-phenyl)-1,3,8-triaza-spiro[4.5]dec-1-en-4-one] — lower, 51%
- Cc1cc(C(=O)N2CC[C@@H](N)C2)cc(C)c1/C=C/S(=O)(=O)N1CCC2(CC1)N=C(c1cccc(OC(F)(F)F)c1)NC2=O [Compound 404, 8-{(E)-2-[4-((R)-3-amino-pyrrolidine-1-carbonyl)-2,6-dimethyl-phenyl]-ethenesulfonyl}-2-(3-trifluoromethoxy-phenyl)-1,3,8-triaza-spiro[4.5]dec-1-en-4-one] — lower, 88%
- Cc1cc(C(=O)N2CCC(N(C)C)CC2)cc(C)c1/C=C/S(=O)(=O)N1CCC2(CC1)N=C(c1cccc(OC(F)(F)F)c1)NC2=O [Compound 405, 8-{(E)-2-[4-(4-dimethylamino-piperidine-1-carbonyl)-2,6-dimethyl-phenyl]-ethenesulfonyl}-2-(3-trifluoromethoxy-phenyl)-1,3,8-triaza-spiro[4.5]dec-1-en-4-one] — lower, 7.7%
- Cc1cc(C(=O)N2C[C@H](NC(C)C)[C@@H](O)C2)cc(C)c1/C=C/S(=O)(=O)N1CCC2(CC1)N=C(c1cccc(OC(F)(F)F)c1)NC2=O [Compound 406, 8-{(E)-2-[4-((3S,4S)-3-hydroxy-4-isopropylamino-pyrrolidine-1-carbonyl)-2,6-dimethyl-phenyl]-ethenesulfonyl}-2-(3-trifluoromethoxy-phenyl)-1,3,8-triaza-spiro[4.5]dec-1-en-4-one] — lower, 100%
- Cc1cc(C(=O)N2CCC(OCCN(C)C)CC2)cc(C)c1/C=C/S(=O)(=O)N1CCC2(CC1)N=C(c1cccc(OC(F)(F)F)c1)NC2=O [Compound 407, 8-((E)-2-{4-[4-(2-dimethylamino-ethoxy)-piperidine-1-carbonyl]-2,6-dimethyl-phenyl}-ethenesulfonyl)-2-(3-trifluoromethoxy-phenyl)-1,3,8-triaza-spiro[4.5]dec-1-en-4-one] — lower, 49%
- Cc1c(CCS(=O)(=O)N2CCC3(CC2)N=C(c2cccc(OC(F)(F)F)c2)NC3=O)cccc1C(=O)N(C)C [Compound 409, 2,N,N-Trimethyl-3-{2-[4-oxo-2-(3-trifluoromethoxy-phenyl)-1,3,8-triaza-spiro[4.5]dec-1-ene-8-sulfonyl]-ethyl}-benzamide] — lower, 55%
- Cc1c(CCS(=O)(=O)N2CCC3(CC2)N=C(c2cccc(OC(F)(F)F)c2)NC3=O)cccc1C(N)=O [Compound 410, 2-methyl-3-{2-[4-oxo-2-(3-trifluoromethoxy-phenyl)-1,3,8-triaza-spiro[4.5]dec-1-ene-8-sulfonyl]-ethyl}-benzamide] — lower, 96%
- Cc1c(CCS(=O)(=O)N2CCC3(CC2)N=C(c2cccc(OC(F)(F)F)c2)NC3=O)cccc1C(=O)N1CCOCC1 [Compound 411, 8-{2-[2-methyl-3-(morpholine-4-carbonyl)-phenyl]-ethanesulfonyl}-2-(3-trifluoromethoxy-phenyl)-1,3,8-triaza-spiro[4.5]dec-1-en-4-one] — lower, 54%
